Target: T1, sGC α1/β1 heterodimer (Homo sapiens, UniProt Q02108+Q02153)
T1 construct: expressed in transfected cells
T1 sequence (Q02108 1-690 partner): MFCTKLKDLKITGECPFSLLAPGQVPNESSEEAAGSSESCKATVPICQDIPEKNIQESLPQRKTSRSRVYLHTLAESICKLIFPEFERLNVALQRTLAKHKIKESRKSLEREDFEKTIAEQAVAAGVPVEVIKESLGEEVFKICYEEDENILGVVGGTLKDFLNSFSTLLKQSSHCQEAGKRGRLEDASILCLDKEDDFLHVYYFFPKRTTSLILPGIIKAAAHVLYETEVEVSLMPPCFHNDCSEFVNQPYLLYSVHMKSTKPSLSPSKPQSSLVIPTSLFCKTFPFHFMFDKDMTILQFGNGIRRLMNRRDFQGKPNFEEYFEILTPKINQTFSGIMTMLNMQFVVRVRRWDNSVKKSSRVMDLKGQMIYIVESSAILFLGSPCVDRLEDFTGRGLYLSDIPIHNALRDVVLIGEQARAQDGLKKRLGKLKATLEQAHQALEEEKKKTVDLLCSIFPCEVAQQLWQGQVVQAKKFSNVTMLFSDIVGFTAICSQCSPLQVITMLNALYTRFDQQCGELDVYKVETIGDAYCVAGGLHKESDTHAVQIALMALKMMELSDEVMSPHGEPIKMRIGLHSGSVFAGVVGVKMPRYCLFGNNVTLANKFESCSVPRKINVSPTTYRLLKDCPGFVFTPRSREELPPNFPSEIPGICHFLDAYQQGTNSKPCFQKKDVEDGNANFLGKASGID
T1 sequence (Q02153 1-619): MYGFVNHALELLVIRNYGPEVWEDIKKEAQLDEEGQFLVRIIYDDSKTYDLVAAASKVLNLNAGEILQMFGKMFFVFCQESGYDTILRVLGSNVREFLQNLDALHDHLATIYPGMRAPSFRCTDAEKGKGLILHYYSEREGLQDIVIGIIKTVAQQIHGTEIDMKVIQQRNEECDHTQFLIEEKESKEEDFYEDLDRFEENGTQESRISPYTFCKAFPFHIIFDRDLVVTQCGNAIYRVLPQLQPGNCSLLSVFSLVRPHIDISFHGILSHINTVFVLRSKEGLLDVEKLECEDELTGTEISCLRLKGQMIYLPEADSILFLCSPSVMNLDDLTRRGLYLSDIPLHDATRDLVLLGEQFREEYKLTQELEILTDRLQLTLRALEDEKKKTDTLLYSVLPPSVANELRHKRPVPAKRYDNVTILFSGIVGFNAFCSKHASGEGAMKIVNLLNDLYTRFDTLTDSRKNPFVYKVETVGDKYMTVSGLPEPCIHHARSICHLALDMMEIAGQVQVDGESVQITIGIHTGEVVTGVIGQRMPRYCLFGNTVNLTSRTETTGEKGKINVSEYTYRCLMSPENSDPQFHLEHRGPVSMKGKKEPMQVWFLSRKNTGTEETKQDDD
Experiment: Cell-based sGC Functional Assay (cGMP level by HTRF in CHO-K1/sGC cells)
Details: with ODQ incubation (10 μM); for EC50: read-out: IP (nM) inflection point; for fold induction: read-out: maximum fold induction over DMSO control
Description: Cell-based sGC Functional Assay
A CHO-K1 cell line stably expressing the sGC α1/β1 heterodimer was generated using a standard transfection protocol. CHO-K1 cells were transfected with plasmids pIREShyghsGCα1 and pIRESneo-hsGCβ1 simultaneously using FUGENE reagent. Clones that stably express both subunits were selected with hygromycin and neomycin for ˜2 weeks. Clone #7 was chosen for the assay and was designated CHO-K1/sGC. CHO-K1/sGC cells were maintained in F-K12 medium containing 10% heat-inactivated Fetal Bovine Serum (FBS), 100 μg/mL penicillin/streptomycin, 0.5 mg/mL hygromycin and 0.25 mg/mL G418. On the day of the assay, cells were harvested in EBSS (Earle's balanced salt solution) Assay Buffer (EAB) containing 5 mM MgCl2, 10 mM HEPES (4-(2-hydroxyethyl)piperazine-1-ethanesulfonic acid) and 0.05% BSA (bovine serum albumin) and cell density was adjusted to 0.75−1.25×10^6 cells/ml with EAB. IBMX (3-isobutyl-1-methylxanthin, 0.5 mM) was added to inhibit degradation of cGMP. Compounds were diluted from DMSO stock solutions and added to the assay at a final DMSO concentration of 1%. Cells were incubated with compounds in the presence and absence of 10 μM of 1H-(1,2,4)oxadiazolo(4,3-a) quinoxalin-1-one (ODQ) for 1 hr at 37° C. At the end of the incubation period, the reaction was terminated and the cells were lysed. The level of intracellular cGMP was determined using an HTRF-based assay kit (CisBio, 62GM2PEC), which detects the displacement of a fluorescence labeled cGMP from its specific antibody. The amount of cGMP was plotted against compound concentration in PRISM software and the inflection point (IP) and maximum fold induction over DMSO control were derived from the plot.

Row | Structure (SMILES) | EC50 | fold induction
1 | O=C(O)c1cnn(-c2cccc(-c3cc(C(F)(F)F)cnc3-c3ccc(C4CCN(CC(F)(F)F)CC4)cc3)n2)c1C(F)(F)F [Example 61, 1-[2′-{4-[1-(2,2,2-trifluoroethyl)piperidin-4-yl]phenyl}-5′-(trifluoromethyl)-2,3′-bipyridin-6-yl]-5-(trifluoromethyl)-1H-pyrazole-4-carboxylic acid] | 16.3 nM | 248
2 | O=C(O)c1cnn(-c2cccc(-c3cc(Cl)ccc3-c3ccc(C4CCN(C(=O)C5CC5)CC4)cc3)n2)c1C(F)(F)F [Example 94, 1-(6-{4-chloro-4′-[1-(cyclopropylcarbonyl)piperidin-4-yl]biphenyl-2-yl}pyridin-2-yl)-5-(trifluoromethyl)-1H-pyrazole-4-carboxylic acid] | 30.2 nM | 281
3 | O=C(O)c1cnn(-c2cccc(-c3cc(F)ccc3-c3ccc(C4CCN(CCC(F)(F)F)CC4)cc3)n2)c1C(F)(F)F [Example 136, 1-(6-{4-fluoro-4′-[1-(3,3,3-trifluoropropyl)piperidin-4-yl]biphenyl-2-yl}pyridin-2-yl)-5-(trifluoromethyl)-1H-pyrazole-4-carboxylic acid] | 78.8 nM | 162

Stronger by EC50, values ahead:

Row | EC50 | fold induction | Structure (SMILES)
4 | 14.6 nM | 231 | O=C(O)c1cnn(-c2cccc(-c3cc(Cl)ccc3-c3ccc(C4CCN(CC(F)(F)F)CC4)cc3)n2)c1C(F)(F)F [Example 60, 1-(6-{4-chloro-4′-[1-(2,2,2-trifluoroethyl)piperidin-4-yl]biphenyl-2-yl}pyridin-2-yl)-5-(trifluoromethyl)-1H-pyrazole-4-carboxylic acid]
5 | 15.8 nM | 119 | COC(=O)N1CCC(c2ccc(-c3ccc(C(F)(F)F)cc3-c3cccc(-n4ncc(C(=O)O)c4C(F)(F)F)n3)cc2)CC1 [Example 127, 1-{6-[4′-[1-(methoxycarbonyl)piperidin-4-yl]-4-(trifluoromethyl)biphenyl-2-yl]pyridin-2-yl}-5-(trifluoromethyl)-1H-pyrazole-4-carboxylic acid]
6 | 9.8 nM | 703 | O=C(O)c1cnn(-c2cccc(-c3cc(Cl)ccc3-c3ccc(N4CCN(CC(F)(F)F)CC4)cc3)n2)c1C(F)(F)F [Example 175, 1-(6-{4-chloro-4′-[4-(2,2,2-trifluoroethyl)piperazin-1-yl]biphenyl-2-yl}pyridin-2-yl)-5-(trifluoromethyl)-1H-pyrazole-4-carboxylic acid]
